Results reported in PubChem BioAssay AID1259334 (Broad Institute, 2017).
Active and inactive are the calls of the source. Cut-off read from the data, not from the text of the source: active = AC50 below about 11 µM.

System: B cell line, TNFa signaling counterscreen reporter
Assay: TNFa pathway inhibition counter-screen, B-lineage cells – dose response (AID 1259334);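 note: cells stimulated with TNFa after compound preincubation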
Conditions: not given
For `N#C[C@H]1[C@H](c2ccc(C#Cc3ccccc3F)cc2)[C@@H](CO)N1C(=O)C1CCC1`, the AC50 was > 20 µM (inactive). For `N#C[C@@H]1[C@H](c2ccc(C#CC3CCCCC3)cc2)[C@H](CO)N1C(=O)Nc1ccc(F)cc1`, the AC50 was > 20 µM (inactive). In the case of `C[C@@H]1CCCCO[C@@H](CN(C)Cc2ccc(Cl)c(Cl)c2)[C@H](C)CN([C@H](C)CO)C(=O)c2cc(NS(=O)(=O)c3cccs3)ccc2O1`, the AC50 was 6.39 µM. With `N#CC(C#N)=NNc1ccc(OC(F)(F)F)cc1` the AC50 was 7.15 µM. With `CC(C)c1c(O)ccc2c1CCC1C(C)(C)CCC[C@]21C` (stereo not given in full) the AC50 was 5.43 µM. `COc1ccccc1NC(c1cccnc1)c1ccc2cccnc2c1O` (stereo not given) showed an AC50 of 8.22 µM. In the case of `COc1ccc2c3c([nH]c2c1)[C@H](CO)N(C(=O)Nc1ccc(F)cc1)CC31CN(Cc2cc(F)ccc2F)C1`, the AC50 was > 20 µM (inactive). `CC(=O)OC(C)(C)/C=C/C(=O)C(C)(O)C1C(O)CC2(C)C3CC=C4C(CC(O)C(=O)C4(C)C)C3(C)C(=O)CC12C` (stereo not given) gave an AC50 of 0.029 µM. For `C=C1CC(Cn2cc(Br)c(=O)[nH]c2=O)(c2ccc(-c3ccccc3)cc2)OC1=O` (stereo not given), the AC50 was 1.07 µM. With `CC(C)(C)[S@](=O)N1Cc2cc(C(=O)NCC(F)(F)F)nc(-c3cccc(-c4cccc(F)c4)c3)c2[C@@H]1CCO` the AC50 was > 20 µM (inactive). With `O=C(C1CC1)N1C[C@@H]2N[C@H](C1)[C@@H]2c1ccc(-c2ccncc2)cc1` the AC50 was 5 µM. Work on `O=C(COC(=O)c1ccccc1C(=O)c1ccc(Cl)c([N+](=O)[O-])c1)NC1CC1` yielded an AC50 of 1.47 µM. Work on `COc1cc(C(C)C)c2c(c1)S(=O)(=O)N(COc1cc(=O)n3cccc(OCCN4CCCCC4)c3n1)C2=O` yielded an AC50 of 3.4 µM. `CC[N+]1(C)CCC(O)(c2ccc(OC)cc2)C(C(=O)c2ccc(OC)cc2)C1` (stereo not given) showed an AC50 of 3.52 µM. `CS(=O)(=O)c1ccc(C(=O)OCC(=O)NC(=O)C2COc3ccccc3O2)cc1[N+](=O)[O-]` (stereo not given) showed an AC50 of 5.1 µM. `O=C(Nc1ccccc1F)N1C[C@@H]2N[C@H](C1)C2c1ccc(/C=C/c2ccccc2)cc1` (stereo not given in full) showed an AC50 of 1.39 µM. Work on `N#Cc1cccc(-c2ccc(C3[C@@H]4CN(C(=O)Nc5ccc(C(F)(F)F)cc5)C[C@H]3N4)cc2)c1` (stereo not given in full) yielded an AC50 of 10 µM. In the case of `CC(=O)O[C@H]1C[C@H](O[C@H]2[C@@H](O)C[C@H](O[C@H]3[C@@H](O)C[C@H](O[C@H]4CC[C@@]5(C)C(CCC6C5C[C@@H](O)[C@]5(C)[C@@H](C7=CC(=O)OC7)CC[C@]65O)C4)O[C@@H]3C)O[C@@H]2C)O[C@H](C)[C@H]1O[C@@H]1O[C@H](CO)[C@@H](O)[C@H](O)[C@H]1O` (stereo not given in full), the AC50 was 1.01 µM. For `CC1=CC2OC3CC4OC(=O)C=CC=CC(C(C)O)OCC(O)C5(C)OC5C(=O)OCC2(CC1O)C4(C)C31CO1` (stereo not given), the AC50 was 0.0273 µM. In the case of `O=C(O)c1ccc(Nc2nc3c(s2)CCCC3)cc1`, the AC50 was 5.3 µM. `CNC(=S)NN=C(C)CCCC(C)=NNC(=S)NC` gave an AC50 of 2.47 µM. Work on `C=C1C(=O)C23C(O)C1CCC2C12CCCC(C)(COC(C)=O)C1C(O)C3(O)OC2` (stereo not given) yielded an AC50 of 0.507 µM. Work on `C[C@H](CO)N1C[C@H](C)[C@H](CN(C)S(=O)(=O)c2ccc(Cl)cc2)Oc2c(NC(=O)Nc3ccc(F)cc3)cccc2C1=O` yielded an AC50 of 4.98 µM. Compound `CC[C@@]1(O)C(=O)OCc2c1cc1n(c2=O)Cc2cc3ccccc3nc2-1` has an AC50 of 0.531 µM. In the case of `Cc1cc(OCC(=O)OCC(=O)NCc2ccco2)ccc1Cl`, the AC50 was > 20 µM (inactive). In the case of `C[C@H]1CN([C@@H](C)CO)C(=O)Cc2cc(NC(=O)Cc3cn(C)c4ccccc34)ccc2O[C@H]1CN(C)Cc1ccc(C(F)(F)F)cc1`, the AC50 was > 20 µM (inactive). `c1ccn2cc(-c3ccc4c(c3)OCCO4)nc2c1` gave an AC50 of 9.69 µM. `C[C@H]1CN([C@@H](C)CO)C(=O)c2cccc(NC(=O)Nc3ccc(F)cc3)c2O[C@H]1CN(C)S(=O)(=O)c1ccc(Cl)cc1` gave an AC50 of 5.13 µM. In the case of `c1ccc2nc(-c3nc4ccccc4o3)ccc2c1`, the AC50 was 6.02 µM. For `Clc1ccc(COC(Cn2ccnc2)c2ccc(Cl)cc2Cl)c(Cl)c1` (stereo not given), the AC50 was 8.2 µM. `OC(c1cc(-c2cccc(Cl)c2)nc2ccccc12)C1CCCCN1` (stereo not given) gave an AC50 of 2.26 µM. For `O=C1NC2c3c(Cl)sc(Cl)c3C(=O)C2O1` (stereo not given), the AC50 was 4.18 µM. Compound `C[C@@H]1CN([C@@H](C)CO)C(=O)Cc2cc(NS(=O)(=O)c3ccc(F)cc3)ccc2O[C@H]1CN(C)Cc1ccc(C(F)(F)F)cc1` has an AC50 of 5.36 µM. For `CC1OC(CC(=O)O)CC2=C1C(=O)c1c(O)cccc1C2=O` (stereo not given), the AC50 was 0.0869 µM. `CC(C)[C@H](CO)Nc1nc(Nc2cccc(Cl)c2)c2ncn(C(C)C)c2n1` showed an AC50 of 3.58 µM. For `O=C(C1CCOCC1)N1CC(=O)N2[C@H](C1)[C@H](c1ccc(C#CCc3ccccc3)cc1)[C@@H]2CO`, the AC50 was 1.6 µM. `CC(C)CCCCCCCCCCCCC(=O)NCC(=O)NC1C(O)C(O)C(Nc2ncnc3nc[nH]c23)OC1C(O)CO` (stereo not given) gave an AC50 of 0.00421 µM. Compound `CC(C)NC(=O)N1Cc2cc(C(=O)NC3Cc4ccccc4C3)nc(-c3cccc(-c4cccnc4)c3)c2[C@@H]1CCO` has an AC50 of 7.2 µM. For `CCC1=C(CC2NCCc3ccccc32)CC2c3cc(OC)c(OC)cc3CCN2C1` (stereo not given), the AC50 was 1.19 µM. Compound `O=C(Nc1ccccn1)c1ccc(-c2ccccc2)cc1` has an AC50 of 2.91 µM. Compound `COc1cc2c(cc1OC)C(=O)C(Br)CC2` (stereo not given) has an AC50 of 2.97 µM.

System: not listed separately
Assay: as above
Conditions: B cell line, TNFa signaling counterscreen reporter; at 0.0005 µM; active compounds read low
For `CCN(CC(=O)Nc1ccc(NC(C)=O)cc1)C(=O)C1CCCN(C(=O)c2ccc(Cl)cc2)C1` (stereo not given), the max activity was -4.62% (inactive).

Same assay, conditions: B cell line, TNFa signaling counterscreen reporter; at 0.0135 µM; active compounds read low
For `Cc1ccccc1-c1ccc(C2[C@@H]3CN(C(=O)Nc4cccc(F)c4)C[C@H]2N3)cc1` (stereo not given in full), the max activity was -14.6% (inactive). For `CC(=O)Nc1nc2nc(-c3ccccc3)cc(-c3ccccc3)n2n1`, the max activity was 11.6% (inactive).

Same assay, conditions: B cell line, TNFa signaling counterscreen reporter; at 0.042 µM; active compounds read low
With `COc1ccc(CN2CC3(CN(S(=O)(=O)c4ccc(C)cc4)C3)c3c([nH]c4cc(OC)ccc34)[C@H]2CO)cc1` the max activity was 14.8% (inactive).

Same assay, conditions: B cell line, TNFa signaling counterscreen reporter; at 0.38 µM; active compounds read low
With `Oc1ccc(Cc2ccccc2)c2cccnc12` the max activity was -12% (inactive). In the case of `C[C@@H]1CN([C@@H](C)CO)C(=O)c2c(c3ccccc3n2C)-c2ccccc2CO[C@@H]1CN(C)Cc1cccc(C(F)(F)F)c1`, the max activity was -7.66% (inactive).

Same assay, conditions: B cell line, TNFa signaling counterscreen reporter; at 1.1 µM; active compounds read low
For `N#C[C@H]1[C@@H](c2ccc(C#CC3CCCCC3)cc2)[C@@H](CO)N1C(=O)Nc1ccc(F)cc1`, the max activity was 10.8% (inactive). In the case of `C[C@@H]1CCCCO[C@@H](CN(C)S(=O)(=O)c2ccc(Cl)cc2)[C@H](C)CN([C@H](C)CO)C(=O)c2cc(NC(=O)Nc3ccc(C(F)(F)F)cc3)ccc2O1`, the max activity was 17% (inactive). With `Cc1ccc(-c2cc(C(=O)N3CC(C)OC(C)C3)c3ccccc3n2)o1` (stereo not given) the max activity was 10.3% (inactive). For `CC1=CC(=O)c2ccccc2C1=O`, the max activity was 21.6% (inactive). In the case of `CC(C)(C)n1cc(C(=O)c2ccc3ccccc3c2O)cn1`, the max activity was -24.4% (inactive).

Same assay, conditions: B cell line, TNFa signaling counterscreen reporter; at 1.2 µM; active compounds read low
For `N#C[C@@H]1[C@@H](c2ccccc2-c2ccc(F)cc2)[C@H](CO)N1C(=O)NC1CCCCC1`, the max activity was 18.3% (inactive).

Same assay, conditions: B cell line, TNFa signaling counterscreen reporter; at 3.5 µM; active compounds read low
For `O=C(CNCCO)N1N=C(c2cccs2)CC1c1cccs1` (stereo not given), the max activity was -16% (inactive). For `O=C(C[C@@H]1CC[C@H]2[C@@H](COC[C@@H](O)CN2Cc2cc(F)ccc2F)O1)NCc1ccc(Oc2ccccc2)cc1`, the max activity was -19.8% (inactive). For `O=C1C(=NO)CCc2ccccc21`, the max activity was 35.6% (inactive).

Same assay, conditions: B cell line, TNFa signaling counterscreen reporter; at 10 µM; active compounds read low
With `CN1C(=O)c2cc(NC(=O)c3cccc(Cl)c3)ccc2OC[C@@H]2O[C@@H](CC(=O)NC3CCCCC3)CC[C@H]21` the max activity was -5.27% (inactive). For `CCc1cnc(N2[C@H](C#N)[C@@H](c3ccc(C#CC(C)C)cc3)[C@H]2CO)s1`, the max activity was 16.5% (inactive). For `O=C(c1ccc(-c2ccc([N+](=O)[O-])cc2)o1)N1CCCC(C(F)(F)F)C1` (stereo not given), the max activity was 46.5% (inactive).

Same assay, conditions: B cell line, TNFa signaling counterscreen reporter; at 11 µM; active compounds read low
For `C[C@@H]1CN([C@H](C)CO)C(=O)Cc2cc(NC(=O)Cc3cn(C)c4ccccc34)ccc2O[C@H]1CN(C)Cc1ccc(C(F)(F)F)cc1`, the max activity was -10.7% (inactive).
